Holding throughout (assay type): biochemical
The target of experiment [1] is T1, Human recombinant MMP-14 (Homo sapiens, UniProt P50281).
T1 construct: The catalytic domain enzyme was expressed in E. coli inclusion bodies, solubilized in urea; made in house
As to the kind of experiment: In vitro MMP inhibition, IC50 determination (fluorogenic substrate I). As to conditions: value outside parenthesis. Summed up:
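Catalytic-domain MMP-14, expressed in E. coli and refolded, activated with APMA or trypsin; compounds incubated at room temperature with 4 μM fluorogenic substrate I (MCA-PLGL-Dpa-AR-NH2) in Tris/NaCl/CaCl2 buffer, pH 7.5. Fluorescence at ex 328/em 415 nm; IC50 from loss of fluorescence versus inhibitor concentration.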

A further experiment addresses T2, Human recombinant MMP-1 (Homo sapiens, UniProt P03956).
T2 construct: made in house; host or cells: MMP-1-transfected HT-1080 cells (spent media)
T2 sequence (P03956 100-469): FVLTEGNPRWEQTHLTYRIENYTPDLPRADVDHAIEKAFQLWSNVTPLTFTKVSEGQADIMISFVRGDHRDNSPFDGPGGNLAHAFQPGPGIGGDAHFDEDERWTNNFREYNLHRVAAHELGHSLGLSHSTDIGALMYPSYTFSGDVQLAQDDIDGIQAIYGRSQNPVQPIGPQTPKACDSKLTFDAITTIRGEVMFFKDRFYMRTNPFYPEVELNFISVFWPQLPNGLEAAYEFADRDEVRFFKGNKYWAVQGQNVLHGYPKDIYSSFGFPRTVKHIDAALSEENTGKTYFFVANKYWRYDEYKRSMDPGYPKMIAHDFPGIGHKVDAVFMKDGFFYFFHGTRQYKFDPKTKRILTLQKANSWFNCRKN
Nature of the experiment: In vitro MMP inhibition, Ki determination (fluorogenic substrate II). As to conditions: value in parenthesis. As for the experimental part:
(§1) Several hydroxamates and salts thereof were analyzed in in vitro assays to determine their ability to inhibit the MMP cleavage of peptide substrates. Inhibition (Ki) and IC50 constants were calculated from the assayed hydroxamate-MMP interactions.
(§2) Human recombinant MMP-1, MMP-2, MMP-9, MMP-13, and MMP-14 were used in this assay. All enzymes were prepared in Assignee's laboratories following usual laboratory procedures. Protocols for the preparation and use of these enzymes are available in the scientific literature. See, e.g., Enzyme Nomenclature (Academic Press, San Diego, Calif., 1992) (and the citations therein). See also, Frije et al., J. Biol. Chem., 26(24), 16766-73 (1994).
The MMP-1 proenzyme was purified from the spent media of MMP-1-transfected HT-1080 cells provided by Dr. Harold Welgus of Washington University (St. Louis, Mo.). The protein was purified on a zinc chelating column.
(§3) All MMPs were activated using 4-aminophenylmercuric acetate (“APMA”, Sigma Chemical, St. Louis, Mo.) or trypsin. MMP-9 also was activated using human recombinant MMP-3 (purified in Assignee's laboratory following standard cloning and purification techniques).
(§4) Two fluorogenic, methoxycoumarin-containing polypeptide substrates were used in the MMP inhibition assays:
(§5) MCA-ArgProLeuGlyLeuDpaAlaArgGluArgNH2 (II)
(§6) Here, “Dpa” is 3-(2,4-dinitrophenyl)-L-2,3-diaminopropionyl group, and “MCA” is 7-methoxycoumarin-4-yl acetyl. Substrate (I) was purchased from Baychem (Redwood City, Calif.), and substrate II was prepared Assignee's laboratory. Substrate I was used in the IC50 determination assays, while substrate II was used in the Ki determination assays. In the absence of MMP inhibitory activity, either substrate is cleaved at the Gly-Leu peptide bond. This cleavage separates the highly fluorogenic peptide from the 2,4-dinitrophenyl quencher, thus resulting in increase of fluorescent intensity.
(§7) The stock solutions of the assayed hydroxamates (or salts thereof) were prepared in 1% dimethyl sulfoxide (DMSO). These stock solutions were diluted in Buffer A (100 mM Tris-HCl, 100 mM NaCl, 10 mM CaCl2, 0.05% polyoxyethylene 23 lauryl ether, pH 7.5) to obtain solutions with different hydroxamate concentrations, i.e., assay solutions with different concentrations of the assayed MMP inhibitory compound. The experiment controls contained the same amount of Buffer A/DMSO as the assayed sample, but contained no hydroxamate (or salt thereof).
(§8) The assays from which the Ki determinations were made were performed as follows. The assayed hydroxamate samples were incubated in separate wells of untreated white polystyrene plates (Nunc Nalgene International, Rochester, N.Y.), and analyzed on a Tecan SpectraFlour Plus plate reader. The excitation wavelength was 330 nm, and the emission wavelength—420 nm. All samples (assayed hydroxamates and controls) were incubated in separate plate wells at room temperature for 1 hr in the presence of 4 μM of MMP substrate (II). In the absence of MMP inhibitory activity, substrate II was cleaved at the Gly-Leu bond resulting in an increase of relative fluorescence. Inhibition was observed as a reduced rate of this increase in relative fluorescence. The various hydroxamates were analyzed using a single low enzyme concentration with a single substrate concentration fixed at or below the Km. This protocol is a modification of method by Knight et al., FEBS Lett., 296(3), 263-266 (1992). Apparent inhibitory constants were determined by non-linear regression of reaction velocity as a function of inhibitor and enzyme concentration using Morrison's equation, as described by Kuzmic, Anal. Biochem. 286, 45-50 (2000). Modifications were made in the non-linear regression method to allow a common control reaction rate and effective enzyme concentration to be shared between all dose-response relationships on a given assay plate. […]

For another experiment, the target named is T3, Human recombinant MMP-9 (Homo sapiens, UniProt P14780).
T3 construct: made in house; host or cells: MMP-9-transfected HT1080 cells (spent media)
The description is as above. Conditions: value in parenthesis. As for the experimental part:
as §1, §2
The MMP-9 proenzyme was purified by gelatin Sepharose chromatography from spent media of MMP-9-transfected HT1080 cells provided by Dr. Howard Welgus of Washington University (St. Louis, Mo.).
as §3, §4, §5, §6, §7, §8

Experiment [2] has as its target T1, Human recombinant MMP-14. The description is as above. Conditions: value in parenthesis. As to the method: as §1, §2
The MMP-14 full length cDNA was provided by Dr. Gregory Goldberg of Washington University (St. Louis, Mo.). The catalytic domain enzyme was expressed in E. coli inclusion bodies, solubilized in urea, purified on a preparative […] reverse phase HPLC column, and then refolded in the presence of zinc acetate and purified for use.
as §3, §4, §5, §6, §7, §8

A value given as a limit tells only on which side of the number the result lay.

T3 sequence (P14780 107-707 limits assumed): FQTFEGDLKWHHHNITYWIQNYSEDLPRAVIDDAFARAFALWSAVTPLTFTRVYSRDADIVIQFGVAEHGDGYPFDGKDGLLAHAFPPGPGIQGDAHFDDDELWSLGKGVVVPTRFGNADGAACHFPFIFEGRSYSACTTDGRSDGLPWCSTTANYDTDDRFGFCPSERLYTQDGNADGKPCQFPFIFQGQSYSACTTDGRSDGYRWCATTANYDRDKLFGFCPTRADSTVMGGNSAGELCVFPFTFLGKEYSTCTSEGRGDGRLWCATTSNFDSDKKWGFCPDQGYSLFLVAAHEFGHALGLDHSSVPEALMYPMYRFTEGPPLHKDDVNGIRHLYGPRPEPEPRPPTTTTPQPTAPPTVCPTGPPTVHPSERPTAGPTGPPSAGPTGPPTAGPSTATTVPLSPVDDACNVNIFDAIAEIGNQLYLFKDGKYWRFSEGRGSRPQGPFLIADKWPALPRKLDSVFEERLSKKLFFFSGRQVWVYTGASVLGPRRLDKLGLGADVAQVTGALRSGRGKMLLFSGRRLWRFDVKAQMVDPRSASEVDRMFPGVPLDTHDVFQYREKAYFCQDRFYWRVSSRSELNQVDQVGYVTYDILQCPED

As usually defined, the IC50 is the concentration that inhibits the measured activity by half. A word on the Ki: it is a dissociation constant, usually derived from enzyme kinetics or from competition with a known ligand. As for `O=C(NO)C1(S(=O)(=O)c2ccc(OCCc3cccc(-c4cccnc4)c3)cc2)CCOCC1` [Example 125], the IC50 at Human recombinant MMP-14 [1] worked out at 5.82 µM. Besides, the Ki on Human recombinant MMP-1 turned out to be 3.58 µM; on Human recombinant MMP-9, 0.146 µM; at Human recombinant MMP-14 [2] it was 1.67 µM.
For `Cc1ccc(-c2cccc(CCOc3ccc(S(=O)(=O)C4(C(=O)NO)CCOCC4)cc3)c2)cc1` [Example 127], in that order: greater than 10 µM, greater than 10 µM, 4.23 µM and greater than 10 µM.
For `O=C(NO)C1(S(=O)(=O)c2ccc(OCCCc3cccc(-c4ccc(F)cc4)c3)cc2)CCN(C2CC2)CC1` [Example 139], in that order: greater than 10 µM, greater than 10 µM, 1.39 µM and greater than 10 µM.
For `COCCN1CCC(C(=O)NO)(S(=O)(=O)c2ccc(OCCCc3cccc(-c4ccc(F)cc4)c3)cc2)CC1` [Example 140], in that order: greater than 10 µM, greater than 10 µM, 0.754 µM and greater than 10 µM.
Turning to `O=C(NO)C1(S(=O)(=O)c2ccc(OCCCc3cccc(-c4cccnc4)c3)cc2)CCOCC1` [Example 150], the IC50 at Human recombinant MMP-14 [1] came out at 6.63 µM. The Ki at Human recombinant MMP-1 is greater than 10 µM; at Human recombinant MMP-9, 0.125 µM; at Human recombinant MMP-14 [2], 5.51 µM.
As to `COCCN1CCC(C(=O)NO)(S(=O)(=O)c2ccc(OCCCc3nc(-c4ccccc4OC(F)(F)F)no3)cc2)CC1` [Example 152], the IC50 on Human recombinant MMP-14 [1] is greater than 10 µM. The Ki on Human recombinant MMP-1 was greater than 10 µM; at Human recombinant MMP-9, 0.0445 µM; on Human recombinant MMP-14 [2], greater than 10 µM.
With `O=C(NO)C1(S(=O)(=O)c2ccc(OCCCc3cccc(Br)c3)cc2)CCOCC1` [Example 154], the IC50 on Human recombinant MMP-14 [1] turned out to be 9.12 µM. For the same compound, the Ki at Human recombinant MMP-1 was greater than 10 µM; at Human recombinant MMP-9, 0.151 µM; at Human recombinant MMP-14 [2] it was 3.91 µM.
For `CCc1ccccc1-c1noc(CCCOc2ccc(S(=O)(=O)C3(C(=O)NO)CCN(CCOC)CC3)cc2)n1` [Example 155], in that order: greater than 10 µM, greater than 10 µM, 0.172 µM and 9.37 µM.
Taken in the same sequence, the figures for `O=C(NO)C1(S(=O)(=O)c2ccc(OCCOc3cccc(-c4ccccc4)c3)cc2)CCOCC1` [Example 157] were greater than 10 µM, greater than 10 µM, 1.39 µM and greater than 10 µM.
With `O=C(NO)C1(S(=O)(=O)c2ccc(OCCCc3cccc(-c4ccccc4F)c3)cc2)CCOCC1` [Example 163], the IC50 at Human recombinant MMP-14 [1] is greater than 10 µM. Further, the results for the inhibition constant Ki on Human recombinant MMP-1, on Human recombinant MMP-9 and on Human recombinant MMP-14 [2] were greater than 10 µM, 2.5 µM and greater than 10 µM, respectively.
Take `COCCN1CCC(C(=O)NO)(S(=O)(=O)c2ccc(OCCCc3nc(-c4ccc(CC(C)C)cc4)no3)cc2)CC1` [Example 175]: the IC50 on Human recombinant MMP-14 [1] is greater than 10 µM. For the same compound, the Ki on Human recombinant MMP-1 is greater than 10 µM; at Human recombinant MMP-9, 1.39 µM; at Human recombinant MMP-14 [2], greater than 10 µM.
For the compound `COCCN1CCC(C(=O)NO)(S(=O)(=O)c2ccc(OCCCc3nnc(-c4ccccc4C(F)(F)F)o3)cc2)CC1` [Example 178], the IC50 on Human recombinant MMP-14 [1] was greater than 10 µM. Moreover, the figures for the Ki at Human recombinant MMP-1, at Human recombinant MMP-9 and on Human recombinant MMP-14 [2] were greater than 10 µM, 0.306 µM and greater than 10 µM, respectively.
Consider `O=C(CCCOc1ccc(S(=O)(=O)C2(C(=O)NO)CCOCC2)cc1)Nc1cccc(OC(F)(F)F)c1` [Example 181], for which, at Human recombinant MMP-14 [1], the concentration for half-maximal inhibition (IC50) came out at 8.06 µM. In addition, the figures for the Ki on Human recombinant MMP-1, at Human recombinant MMP-9 and on Human recombinant MMP-14 [2] were 1.85 µM, 0.0405 µM and 4.83 µM, respectively.
For `CC(C)c1cccc(NC(=O)CCCOc2ccc(S(=O)(=O)C3(C(=O)NO)CCOCC3)cc2)c1` [Example 182], the IC50 at Human recombinant MMP-14 [1] is greater than 10 µM. The results for the inhibition constant (Ki) at Human recombinant MMP-1, at Human recombinant MMP-9 and at Human recombinant MMP-14 [2] were 6.54 µM, 0.0854 µM and 5.85 µM, respectively.
For the compound `COCCN1CCC(C(=O)NO)(S(=O)(=O)c2ccc(OCCCc3nc(-c4ccc(OC(F)(F)F)cc4)no3)cc2)CC1` [Example 190], the IC50 on Human recombinant MMP-14 [1] was greater than 10 µM. For the same compound, the inhibitory constant (Ki) at Human recombinant MMP-1 is greater than 10 µM; at Human recombinant MMP-9, 0.669 µM; at Human recombinant MMP-14 [2], greater than 10 µM.

These data come from patent publication US20040024024A1, “Aromatic sulfone hydroxamates and their use as protease inhibitors” (priority 2001, published 2004).
